Data: ChEMBL document CHEMBL1201862, “PubChem BioAssay data set” (2004)
Values joined by “and” are separate entries in the source; they are usually repeats but may differ in a detail not shown here. Equal values may be shown once.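 Tested at 5 concentrations; 48 h exposure; 96-well plates; endpoints linearly interpolated, else capped at highest concentration. GI50 = concentration required for 50% inhibition of growth.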 Active and inactive are the calls of the source. No stated cut-off is given here; in the data, active = GI50 up to about 1.1 µM and inactive = higher.

How the values were obtained:
Assay in all cases: DTP human tumour cell line panel, 48 h
[1] = system: MOLT-4
[2] = system: NCI-H23
[3] = system: PC-3
[4] = system: CCRF-CEM
[5] = system: HL-60
[6] = system: KM12
[7] = system: IGROV-1
[8] = system: MCF7
[9] = system: SK-MEL-2
[10] = system: HOP-62
[11] = system: SR
[12] = system: A549
[13] = system: DU-145
[14] = system: MDA-N
[15] = system: UO-31
[16] = system: M14
[17] = system: UACC-62
[18] = system: SK-OV-3
[19] = system: OVCAR-4
[20] = system: MDA-MB-435
[21] = system: SNB-75
[22] = system: CAKI-1
[23] = system: LOX IMVI
[24] = system: SF-268
[25] = system: NCI-H226
[26] = system: NCI-H460
[27] = system: TK-10
[28] = system: 786-0
[29] = system: ACHN
[30] = system: Hs-578T
[31] = system: OVCAR-5
[32] = system: HCT-116
[33] = system: UACC-257
[34] = system: K562
[35] = system: SF-539
[36] = system: OVCAR-3
[37] = system: MDA-MB-231
[38] = system: Malme-3M
[39] = system: T47D
[40] = system: COLO 205
[41] = system: RXF 393
[42] = system: NCI/ADR-RES
[43] = system: U-251
[44] = system: SK-MEL-28
[45] = system: EKVX
[46] = system: SN12C
[47] = system: OVCAR-8
[48] = system: NCI-H522
[49] = system: HCT-15
[50] = system: SNB-19
[51] = system: SF-295
[52] = system: RPMI-8226
[53] = system: SW-620
[54] = system: SK-MEL-5
[55] = system: HCC 2998
[56] = system: HOP-92
[57] = system: HT-29
[58] = system: A498

Measured: GI50

Nc1ncn(C2OC(CO)C(O)C2O)c(=O)n1 (centres undefined)
735 nM (active) and 1.22 µM (inactive): [1]

O=C(CCCN1CCC2(CC1)OC(=O)N(c1ccccc1)C2=O)c1ccccc1
> 100 µM: [49]
inactive: [2] > 100 µM | [3] > 100 µM | [4] > 100 µM | [5] > 100 µM | [6] > 100 µM | [7] > 100 µM | [8] > 100 µM | [9] > 100 µM | [10] > 100 µM | [11] > 100 µM | [12] > 100 µM | [13] > 100 µM | [14] > 100 µM | [15] 27.8 µM | [16] > 100 µM | [17] > 100 µM | [18] > 100 µM | [19] > 100 µM | [20] > 100 µM | [21] > 100 µM | [22] > 100 µM | [23] > 100 µM | [24] > 100 µM | [25] > 100 µM | [26] > 100 µM | [27] > 100 µM | [28] > 100 µM | [29] > 100 µM | [30] > 100 µM | [31] > 100 µM | [32] > 100 µM | [33] > 100 µM | [34] > 100 µM | [35] > 100 µM | [36] > 100 µM | [37] 35.5 µM | [38] > 100 µM | [39] > 100 µM | [40] > 100 µM | [41] > 100 µM | [42] > 100 µM | [43] > 100 µM | [44] > 100 µM | [45] > 100 µM | [46] > 100 µM | [47] > 100 µM | [1] > 100 µM | [48] > 100 µM | [50] > 100 µM | [51] > 100 µM | [52] > 100 µM | [53] > 100 µM | [54] > 100 µM | [55] > 100 µM | [56] > 100 µM | [57] > 100 µM | [58] > 100 µM
